Experimental data reported in ChEMBL document CHEMBL4831538, “Repositioning of the Anthelmintic Drugs Bithionol and Triclabendazole as Transthyretin Amyloidogenesis Inhibitors” (J Med Chem, 2021).
Active and inactive are the calls of the source. No cut-off for these calls is given here.

Key:
Transthyretin [1] = molecular target: T1, Transthyretin (Homo sapiens, UniProt P02766); assay: Stabilization of wild type TTR (unknown origin) expressed in Escherichia coli assessed as reduction in methanol-induced aggregation at 50 uM incubated for 60 min by absorbance method
[2] = system: Transthyretin (Homo sapiens), P02766 [V50M]; assay: Stabilization of TTR V30M mutant (unknown origin) assessed as suppression of TTR tetramer dissociation at 3 uM incubated for 9 days by glutaraldehyde cross-linking assay based SDS-PAGE analysis relative to control; conditions: time 9.0 day
[3] = system: Transthyretin (Homo sapiens), P02766 [V50M]; assay: (§1) Stabilization of TTR V30M mutant (unknown origin) assessed as acid-mediated protein aggregation inhibition ratio incubated for 1 week by absorbance method; conditions: time 1.0 weeks
[4] = system: Transthyretin (Homo sapiens), P02766 [V142I]; assay: Stabilization of TTR V142I mutant (unknown origin) expressed in Escherichia coli assessed as reduction in trypsin-induced aggregation incubated for 3 to 4 days by absorbance method; conditions: time 3-4 day
[5] = system: Transthyretin (Homo sapiens), P02766 [V50M]; assay: Stabilization of TTR V30M mutant (unknown origin) assessed as suppression of TTR tetramer dissociation at 1 to 10 uM incubated for 9 days by glutaraldehyde cross-linking assay based SDS-PAGE analysis; conditions: dose 1-10 µM, time 9.0 day
Transthyretin [6] = molecular target: T2, Transthyretin (Homo sapiens, UniProt P02766, V50M); assay: Binding affinity to TTR V30M mutant (unknown origin) expressed in Escherichia coli incubated for 60 mins by tryptophan intrinsic fluorescence method; conditions: read-out: Kd(app)
Transthyretin [7] = molecular target: T2, Transthyretin; assay: as §1
Transthyretin [8] = molecular target: T1, Transthyretin; assay: Stabilization of wild type TTR (unknown origin) expressed in Escherichia coli assessed as reduction in methanol-induced aggregation incubated for 60 min by absorbance method
Transthyretin [9] = molecular target: T2, Transthyretin; assay: Binding affinity to TTR V30M mutant (unknown origin) by isothermal titration calorimetry

| SMILES | Activity (Transthyretin [1]) | Activity [2] | Activity [3] | Activity [4] | Activity [5] | Kd (Transthyretin [6]) | IC50 (Transthyretin [7]) | IC50 (Transthyretin [8]) | Kd (Transthyretin [9]) |
| --- | --- | --- | --- | --- | --- | --- | --- | --- | --- |
| O=C(O)c1ccc2nc(-c3cc(Cl)cc(Cl)c3)oc2c1 | Active | 100% | Dose-Dependent Effect | Dose-Dependent Effect | Active | – | – | – | – |
| Oc1ccc(Cl)cc1Cc1cc(Cl)ccc1O | – | – | – | – | Active | – | – | – | – |
| CC(C)c1ccc2oc3nc(N)c(C(=O)O)cc3c(=O)c2c1 [AMLEXANOX] | – | – | – | – | – | 20 µM | – | – | – |
| O=C(O)c1cc(-c2ccc(F)cc2F)ccc1O | – | – | Dose-Dependent Effect | – | Active | – | – | – | – |
| CSc1nc2cc(Cl)c(Oc3cccc(Cl)c3Cl)cc2[nH]1 [TRICLABENDAZOLE] | Active | 100% | Dose-Dependent Effect | Dose-Dependent Effect | Active | – | 3.5 µM | – | – |
| CC(C)=COc1ccc(/C=C/C(O)c2ccc(OC=C(C)C)cc2OCC(=O)O)cc1 (stereo not drawn) | – | – | – | – | – | 6.5 µM | – | – | – |
| Oc1c(Cl)cc(Cl)cc1Sc1cc(Cl)cc(Cl)c1O [BITHIONOL] | – | 100% | Dose-Dependent Effect | Dose-Dependent Effect | Active | 1.1 µM | 2.4 µM | 3 µM | 0.062 µM |
| Cc1ccc(C(=O)c2cc(O)c(O)c([N+](=O)[O-])c2)cc1 | – | 100% | Dose-Dependent Effect | Dose-Dependent Effect | Active | – | – | – | – |
